Assay results published in PMC6511062, “Preclinical candidate for the treatment of visceral leishmaniasis that acts through proteasome inhibition” (Proceedings of the National Academy of Sciences of the …, 2019).

How the values were obtained:
[1] = system: L. donovani promastigotes; assay: Cell cycle (FACS) analysis, L. donovani promastigotes; type: cell-based, Leishmania donovani; conditions: 5x EC50
Experimental: consisted of 1 µL (40 ng) of cDNA, 10 µL of Brilliant III Ultra-Fast QPCR Master Mix (Agilent Technologies), 1 µL (500 nM) each of the forward and reverse primers, and 0.3 µl (30 nM) of reference dye and nuclease-free PCR grade-treated water. PCR was performed using an Agilent Mx3005P machine with the following cycling conditions:
95°C for 3 min; 40 cycles of 95°C for 20 s; then 60 °C for 20 s. The reference gene TERT (Tb927.11.10190, telomerase reverse transcriptase) was used to provide a baseline of transcription levels for normalization of the data. Relative quantification in the tetracycline-induced cell lines were normalized to the un-induced cell line using the […]
h. Morphological analysis […]
Cultures of bloodstream T. brucei and L. donovani promastigotes at starting cell densities of 5 x 105 were incubated with concentrations of compound 7 equivalent to 5x their respective EC50 values. […] After washing, cell densities were adjusted to 5 × 10^5 cells mL, re-suspended in 500 µL of PBS containing 50 µg/mL propidium iodide, 50 µg/mL RNase and 0.1% Triton X-100, incubated at room temperature for 20 min in the dark and analysed using FACSort analytical flow cytometer using Cellquest software (BD Biosciences). j. […]

[2] = 7 day oral repeat-dose rat toxicology and toxicokinetics; conditions: for tolerability: male rats, oral
Experimental: b. 7 day rat toxicology studies
A 7 day oral repeat-dose study in male rats was conducted to determine the toxicity […]
Groups of male rats (4/group toxicity; 3/group […]
up to 7 days by oral gavage. […]

[3] = system: TA98; assay: Ames test, strain TA98
Experimental: oxidative metabolism system (S9-mix). The maximum concentration tested and […]
Compound 7a was tested in a bacterial mutation screening assay (Ames test) with Salmonella typhimurium TA1535, TA1537, TA98, TA100 and Escherichia coli WP2uvrA(pKM101) in the presence and absence of an exogenous mammalian […]
The bacterial mutation screening assay was a plate incorporation test carried out as previously described15 and according to current methodology. […]

[4] = system: Leishmania tarentolae; assay: Potency against L. tarentolae; type: cell-based
Description: The potency of 8 against the nonpathogenic Leishmania spp. […] Apo (3.3 Å) and 8-liganded (2.8 Å) (Fig. 5A) L. tarentolae 20S proteasome structures were obtained using single-particle cryo-EM (SI Appendix, Figs. S11–S15 and Table S9).

SMILES | effect on cell cycle progression [1] | margin to the predicted human blood AUC0-24 ([2]; 300 mg/kg/day) [fold] | tolerability ([2]; 1000 mg/kg/day) | tolerability ([2]; 100 and 300 mg/kg/day, 7 days) | rat 7-d toxicology study outcome ([2]; doses up to 300 mg/kg) | safety margin ([2]; male, rat, in vivo, 300 mg/kg, 7 days) | Mean revertants per plate ([3]; with S9-mix, dose level 50 per plate) | Mean revertants per plate ([3]; with S9-mix, dose level 150 per plate) | Mean revertants per plate ([3]; with S9-mix, dose level 500 per plate) | Mean revertants per plate ([3]; with S9-mix, dose level 1500 per plate) | Mean revertants per plate ([3]; with S9-mix, dose level 2500 per plate) | Mean revertants per plate ([3]; with S9-mix, dose level 5000 per plate) | Mean revertants per plate ([3]; without S9-mix, dose level 50 per plate) | Mean revertants per plate ([3]; without S9-mix, dose level 150 per plate) | Mean revertants per plate ([3]; without S9-mix, dose level 500 per plate) | Mean revertants per plate ([3]; without S9-mix, dose level 1500 per plate) | Mean revertants per plate ([3]; without S9-mix, dose level 2500 per plate) | Mean revertants per plate ([3]; without S9-mix, dose level 5000 per plate) | EC50 [4] [nM]
O=C(Nc1ccc(F)c(-c2cn3nc(-c4ccccc4)cnc3n2)c1)N1CCCC1 [Compound 7] | accumulation of cells in G2/M | – | – | – | – | – | – | – | – | – | – | – | – | – | – | – | – | – | –
O=C(Nc1ccc(F)c(-c2ccn3c(N4CCOCC4)cnc3n2)c1)N1CCCC1 [Compound 8] | – | 37 | not tolerated | tolerated over the 7 days | no significant safety or tolerability liabilities were detected | at least 37 fold | 23.0 | 25.0 | 30.0 | 24.5 | 25.5 | 25.0 | 22.5 | 19.0 | 14.5 | 19.5 | 16.5 | 18.0 | 40
